The source of these data is patent publication US20100197760A1, “DISUBSTITUTED PHENYLPYRROLIDINES AS MODULATORS OF CORTICAL CATECHOLAMINERGIC NEUROTRANSMISSION” (NSAB, FILIAL AF NEUROSEARCH SWEDEN AB, SVERIGE, priority 2007, published 2010).

Series [1] deals with DOPAC levels (3,4-dihydroxyphenylacetic acid) in the rat striatum. Kind of series: In vivo neurochemistry: tissue content of DOPAC in rat striatum. The arrangement: species or system rat (male Sprague-Dawley). The conditions noted are these: 100 μmol/kg s.c., 60 min after administration, %-increase from control value. As to the method:
The measurement of the tissue content of DOPAC is well established in the field of research since the 1960's. In short, male Sprague-Dawely rats are administered the test compound 60 minutes prior to decapitation. The brain is rapidly taken out and dissected. The striatum is rapidly frozen and subsequently quantitatively analysed with respect to its content of DOPAC by means of HPLC and electrochemical detection. The number of animals used for each test compound/vehicle is 4/group.
Male Sprague-Dawley rats weighing 220-320 g are used throughout the experiments. Sixty (60) minutes following administration of the test substance, the rats are decapitated. Directly after decapitation the brain is removed from the skull and put on a glass petri bowl filled with ice. The limbic system (containing the nucleus accumbens—both the core and shell, most parts of the olfactory tubercle and ventral pallidum) is dissected using two thin, angled tweezers and put directly on foil on dry ice (carbon dioxide −78° C.). The striatum and cortex are then dissected and also put on dry ice. The time from decapitation until the last tissue is dissected varies from four to six minutes. The tissue is weighed using a Sartorius BP3105 connected to a computer and packed in labelled tin foil, then stored in an −80° C. freezer. Great care is taken in order to keep the tissue frozen until the time of neurochemical analysis. Each brain part is subsequently analyzed with respect to its content of monoamines and their metabolites.
The monoamine transmitter substances (NE (norepinephrine), DA (dopamine), 5-HT (serotonin)) as well as their amine (NM (normethanephrine), 3-MT (3-methoxytyramine)) and acid (DOPAC (3,4-dihydroxyphenylacetic acid), 5-HIAA (5-hydroxyindoleacetic acid), HVA (homovanillic acid)) metabolites are quantified in brain tissue homogenates by HPLC separations and electrochemical detection.
The analytical method is based on two chromatographic separations dedicated for amines or acids. Two chromatographic systems share a common auto injector with a 10-port valve and two sample loops for simultaneous injection on the two systems. Both systems are equipped with a reverse phase column (Luna C18(2), dp 3 μm, 50*2 mm i.d., Phenomenex) and electrochemical detection is accomplished at two potentials on glassy carbon electrodes (MF-1000, Bioanalytical Systems, Inc.). The column effluent is passed via a T-connection to the detection cell or to a waste outlet. This is accomplished by two solenoid valves, which block either the waste or detector outlet. By preventing the chromatographic front from reaching the detector, better detection conditions are achieved. The aqueous mobile phase (0.4 ml/min) for the acid system contains citric acid 14 mM, sodium citrate 10 mM, MeOH 15% (v/v) and EDTA 0.1 mM. Detection potentials relative to Ag/AgCl reference are 0.45 and 0.60V. The aqueous ion pairing mobile phase (0.5 ml/min) for the amine system contains citric acid 5 mM, sodium citrate 10 mM, MeOH 9% (v/v), MeCN 10.5% (v/v), decane sulfonic acid 0.45 mM, and EDTA 0.1 mM. Detection potentials relative to Ag/AgCl reference are 0.45 and 0.65V.

Series [2] shares this test system. The conditions noted are these: 100 μmol/kg s.c., data taken from Table 2 in Ref 1 (J. Med. Chem. 1994, 37, 2735); cited from earlier work.
Series [3] concerns extracellular levels of dopamine, norepinephrine and serotonin in striatum and prefrontal cortex. The conditions noted are these: literature statement (Pliszka, 2005); cited from earlier work.
Series [4] shares this test system. Kind of series: In vivo microdialysis in awake, freely moving rats. The arrangement: species or system rat (male Sprague-Dawley). The conditions noted are these: mirtazapine 10 mg/kg s.c. (FIGS. 21 and 22).

Counter-ions that a name gives are not always drawn. Like-named read-outs stand apart in the source and are kept apart here.

Regarding `Fc1ccc(C2CCNC2)c(F)c1` (stereo not drawn) [Example 2, 3-(2,4-DIFLUOROPHENYL)PYRROLIDINE], the DOPAC %-increase in series [1] is −22%. The same measure, in the same setting: then `CCCN1CCC(c2ccc(Cl)c(C(F)(F)F)c2)CC1` [Example 9 of WO01/46146, 4-(4-chloro-3-trifluoromethyl-phenyl)-1-propyl-piperidine, reference compound], with “+94%”.

`CCCN1CCC[C@@H](c2cccc(S(C)(=O)=O)c2)C1` [Example 16 of ref. 1]: the DOPAC %-increase result in series [2] is “+150^2%”. In the case of `CN1CCC(c2ccc(F)c(F)c2)C1` (stereo not drawn) [Example 4, 3-(3,4-DIFLUOROPHENYL)-1-METHYLPYRROLIDINE], in series [1], the DOPAC %-increase is given as −20%. Regarding `CN1CCC(c2ccc(F)c(F)c2)C1` (stereo not drawn) (as salt: fumaric acid salt) [Example 4, 3-(3,4-DIFLUOROPHENYL)-1-METHYLPYRROLIDINE], the melting point lay in the range of 140 to 142 °C. Take `CNCC[C@@H](Oc1ccccc1C)c1ccccc1` [atomoxetine]: in series [3], the “cortical DA and NE levels” value is “regionally selective increases in cortical DA and NE”. Take `Fc1ccc(C2CCNC2)cc1F` (stereo not drawn) [Example 5, 3-(3,4-DIFLUOROPHENYL)PYRROLIDINE]: the DOPAC %-increase in series [1] is −37%. For `Fc1cc(F)cc(C2CCNC2)c1` (stereo not drawn) [Example 3, 3-(3,5-DIFLUOROPHENYL)PYRROLIDINE], the DOPAC %-increase in series [1] is −19%. `Fc1cc(F)cc(C2CCNC2)c1` (stereo not drawn) (as salt: oxalic acid salt) [Example 3, 3-(3,5-DIFLUOROPHENYL)PYRROLIDINE] came in with a melting point of 199 to 200 °C.

Consider `CN1CCN2c3ncccc3Cc3ccccc3C2C1` (stereo not drawn) [mirtazapine], for which, in series [4], the “extracellular norepinephrine and dopamine, cortex versus striatum” value is “increase predominantly extracellular norepinephrine and dopamine in the cortex”.

`Clc1ccc(C2CCNC2)cc1Cl` (stereo not drawn) (as salt: hydrochloric acid salt) [Example 1, 3-(3,4-DICHLOROPHENYL)PYRROLIDINE]: the melting point was 136 to 137 °C. Regarding `Clc1ccc(C2CCNC2)cc1Cl` (stereo not drawn) [Example 1, 3-(3,4-DICHLOROPHENYL)PYRROLIDINE], the DOPAC %-increase in series [1] is given as −45%. Take `Fc1ccc(C2CCNC2)cc1F` (stereo not drawn) (as salt: hydrochloric acid salt) [Example 5, 3-(3,4-DIFLUOROPHENYL)PYRROLIDINE]: the melting point lay within 139 to 140 °C. For the compound `Fc1ccc(C2CCNC2)c(F)c1` (stereo not drawn) (as salt: oxalic acid salt) [Example 2, 3-(2,4-DIFLUOROPHENYL)PYRROLIDINE], the melting point worked out at 116 °C. For `CCCN1CCC(c2cc(F)cc(C(F)(F)F)c2)CC1` [Example 44 of WO01/46146, 4-(3-fluoro-5-trifluoromethyl-phenyl)-1-propyl-piperidine, reference compound], the DOPAC %-increase entry in series [1] was “+239%”.

As a reminder, the melting point is the temperature, or range, at which the solid turns liquid.
